In PubChem BioAssay (NCI):
Several values for one entry are separate records, joined by “and”; a condition that tells them apart may be missing. Equal entries are not always repeated.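 48-hour exposure; five concentrations; linearly interpolated endpoints. The concentration for 50% growth inhibition is given as GI50. TGI denotes the concentration required for complete inhibition of growth.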

What was measured:
Assay in all cases: NCI tumour cell line growth inhibition, 48 h
HCT-116 colon = test system: HCT-116 colon
KM12 colon = test system: KM12 colon
NCI-H460 lung = test system: NCI-H460 lung
OVCAR-5 ovarian = test system: OVCAR-5 ovarian
SK-MEL-2 melanoma = test system: SK-MEL-2 melanoma
SK-MEL-28 melanoma = test system: SK-MEL-28 melanoma
SK-MEL-5 melanoma = test system: SK-MEL-5 melanoma
SK-OV-3 ovarian = test system: SK-OV-3 ovarian
U251 CNS = test system: U251 CNS
T-47D breast = test system: T-47D breast

| Compound | TGI (HCT-116 colon) [µM] | TGI (KM12 colon) | TGI (NCI-H460 lung) | TGI (OVCAR-5 ovarian) | TGI (SK-MEL-2 melanoma) | TGI (SK-MEL-28 melanoma) | TGI (SK-MEL-5 melanoma) | TGI (SK-OV-3 ovarian) | TGI (U251 CNS) | GI50 (SK-MEL-2 melanoma) | GI50 (OVCAR-5 ovarian) | GI50 (SK-MEL-28 melanoma) [µM] | TGI (T-47D breast) [µM] | GI50 (HCT-116 colon) [µM] | GI50 (KM12 colon) [µM] | GI50 (NCI-H460 lung) [µM] | GI50 (SK-MEL-5 melanoma) [µM] | GI50 (SK-OV-3 ovarian) [µM] | GI50 (U251 CNS) [µM] | GI50 (T-47D breast) [µM] |
| --- | --- | --- | --- | --- | --- | --- | --- | --- | --- | --- | --- | --- | --- | --- | --- | --- | --- | --- | --- | --- |
| O=C(O)CNc1c2ccccc2nc2ccccc12 | > 100 | > 100 µM | > 100 µM | > 100 µM | > 100 µM | > 100 µM | > 100 µM | > 100 µM | > 100 µM |  |  |  |  |  |  |  |  |  |  |  |
| N#CC(C(=O)/C(=N/N)C(C#N)c1ccc(Cl)cc1)c1ccc(Cl)cc1 (stereo not drawn) | > 100 | > 100 µM | > 100 µM | > 100 µM | > 100 µM |  | > 100 µM |  | > 100 µM |  |  |  |  |  |  |  |  |  |  |  |
| CC(=O)OC1C(=O)C(O)C(C)OC1O[C@@H]1C[C@@]2(C)[C@@H]3CC=C4[C@@H](C[C@H](O)C(=O)C4(C)C)[C@]3(C)C(=O)C[C@]2(C)[C@H]1[C@@](C)(O)C(=O)/C=C/C(C)(C)O (stereo partly drawn) | > 10 | > 10 µM | > 10 µM | > 10 µM |  | 0.803 µM | 8.4 µM | > 9.33 µM | 5.41 µM | 0.055 µM |  |  |  |  |  |  |  |  |  |  |
| COC(=O)C(CCS(=O)(=O)CC(=O)C(=O)Nc1cccc(C(C)=O)c1)C(=O)OC | > 100 | > 100 µM | > 92 µM | > 100 µM | > 100 µM | > 100 µM | > 100 µM | > 100 µM | > 100 µM |  |  |  |  |  |  |  |  |  |  |  |
| COc1c(O)c2c(c3cc(C(=O)N4CCc5c4c(O)c(OC)c4[nH]c(C(=O)N6CC7CC78C6=CC(=O)c6[nH]cc(C)c68)cc54)[nH]c13)CCN2C(N)=O (stereo not drawn) |  | 9.37 nM and 929 nM and 0.0348 µg/mL | 1.83 nM and 137 nM and 0.00377 µg/mL | 0.0519 µg/mL | 0.0349 µg/mL |  | 27.9 nM and 400 nM and 0.00964 µg/mL |  | 2.66 nM and 305 nM and 0.00324 µg/mL | 0.0187 µg/mL | 0.0152 µg/mL | 0.354 | 40 |  |  |  |  |  |  |  |
| O=C1C(Cl)=C(Cl)C(=O)N1C1C2CC3CC(C2)CC1C3 (stereo not drawn) | > 100 |  | > 100 µM | > 100 µM | > 100 µM | > 100 µM | > 100 µM | > 100 µM | > 100 µM |  |  |  |  |  |  |  |  |  |  |  |
| CCCCCCCCCCC/C(=N/O)c1ccc(O)c2ncccc12 | 59.9 | > 100 µM | 17 µM | 6.66 µM | 5.86 µM | > 100 µM | 4.18 µM |  | 23.5 µM |  |  |  |  |  |  |  |  |  |  |  |
| CCCN(CCCCC(NC(C)=O)C(=O)NCc1ccccc1)C(=O)NCCCl (stereo not drawn) | > 100 | > 100 µM | > 100 µM |  |  | > 100 µM | > 100 µM |  | > 100 µM |  |  |  |  |  |  |  |  |  |  |  |
| CC(C)N(C(=O)C12C3C4C5(C#N)C3C1(I)C5C42I)C(C)C (stereo not drawn) | 34.3 | > 100 µM | > 100 µM | > 100 µM | > 100 µM | > 100 µM | > 100 µM | > 100 µM | > 100 µM |  |  |  |  |  |  |  |  |  |  |  |
| CC(CN(CP(=O)([O-])[O-])CP(=O)([O-])[O-])N(CP(=O)([O-])[O-])CP(=O)([O-])[O-].N.N.[Pt+2] (stereo not drawn) | > 100 | > 100 µM | > 100 µM | > 100 µM | > 100 µM | > 100 µM | > 100 µM | > 100 µM | > 100 µM | > 100 µM | > 100 µM | > 100 |  | > 100 | > 100 | > 100 | > 100 | > 100 | > 100 |  |
| COC(=O)C1=C(C)N(NC(N)=O)C2(N)N(NC(N)=O)C(C)=C(C(=O)OC)C12C(=O)OC (stereo not drawn) | > 100 | > 10 µM | > 100 µM | > 100 µM | > 100 µM | > 100 µM |  | > 100 µM | > 100 µM |  |  |  |  |  |  |  |  |  |  |  |
| CCCCCCCCCC(=O)CC(=O)c1ccc(O)cc1O | 66.6 | 61 µM | > 100 µM | 94 µM | 49.9 µM | > 100 µM | 31.5 µM | > 100 µM | 64.9 µM |  |  |  |  |  |  |  |  |  |  |  |
| O=C1CCC(Cc2ccc(Cl)cc2Cl)C(=O)N1 (stereo not drawn) | > 100 |  | > 100 µM | > 100 µM | > 100 µM | > 100 µM | > 100 µM | > 100 µM | > 100 µM |  |  |  | > 100 |  |  |  |  |  |  |  |
| CCN1C2=NC(=O)N(C)C(=O)C2(Cl)C(C(SC)S(=O)(=O)c2ccc(C)cc2)c2ccccc21 (stereo not drawn) | 53.6 |  | > 100 µM | > 100 µM | > 100 µM | 67.9 µM | > 100 µM | > 100 µM | > 100 µM |  |  |  |  |  |  |  |  |  |  |  |
| COc1ccc(/C=C/C(=O)c2cc3c(N)c(C(=O)Nc4ccccc4Cl)sc3nc2C)cc1 | > 50 | > 50 µM | > 50 µM | > 50 µM | 16.7 µM |  | 8.79 µM | 19 µM | 29.6 µM | 1.31 µM | > 50 µM |  | > 50 | 1.11 | 3.48 | 2.2 | 1.36 | 3.58 | 3.36 | 2.95 |
| Clc1ccc(Cl)c2[s+]snc12 | > 54.9 | > 100 µM | > 88.3 µM | > 100 µM |  | > 100 µM | > 100 µM | > 100 µM | > 100 µM |  |  |  |  |  |  |  |  |  |  |  |
| COC(=O)C1CC(C(=O)OC)c2nc3cc(C)ccc3nc21 (stereo not drawn) |  | > 100 µM | > 100 µM | > 100 µM | > 100 µM | > 100 µM | > 100 µM | > 100 µM | > 100 µM |  |  |  |  |  |  |  |  |  |  |  |
| COc1ccc2[nH]c(-c3ccccn3)cc(=O)c2c1 | > 100 | > 100 µM | > 100 µM | > 100 µM |  | > 100 µM | > 100 µM | > 100 µM |  |  |  |  |  | 33.6 |  |  | 28.5 |  |  |  |
| C(=N\Nc1ccccn1)/c1ccccn1 | > 100 | > 100 µM | 3.98 µM | > 100 µM | > 100 µM | > 100 µM |  |  | > 100 µM | > 100 µM | 0.588 µM | 0.816 | > 100 | 0.303 | 0.47 | 0.321 |  | 0.393 | 0.445 | 0.332 |
| O=C1c2cccc3cc([N+](=O)[O-])cc(c23)C(=O)N1CCNCCNCCNCCN1C(=O)c2cccc3cc([N+](=O)[O-])cc(c23)C1=O | 1.08 | 0.668 µM and 4.47 µM | 0.0413 µM | 0.326 µM | 0.283 µM | 0.338 µM and 0.279 µM | 1.52 µM and 0.174 µM | 0.341 µM and 0.598 µM | 0.0206 µM |  |  |  |  |  |  |  | 0.0176 | 0.0273 |  |  |
